Source: patent US20230313299A1, “METHOD FOR DIAGNOSIS AND/OR PROGNOSIS OF LIVER DISEASE PROGRESSION AND RISK OF HEPATOCELLULAR CARCINOMA AND DISCOVERY OF THERAPEUTIC COMPOUNDS AND TARGETS TO TREAT LIVER DISEASE AND CANCER” (UNIVERSITÉ DE STRASBOURG, priority 2020, published 2023)
Entries after “also recorded” stand apart in the source; their conditions may differ.

Columns and labels:
[1] = system: Prognostic Epigenetic Signature (PES, 25-gene signature) in HCV Jc1-infected Huh7.5.1dif cells; assay: PES cell-based model: HCV-infected differentiated Huh7.5.1 cells, PES expression by RNA-Seq or nCounter; design: species or system human; conditions: JQ1 50 nM, Nizatidine 10 μM, Captopril 1 μM, Pioglitazone 1 μM
Procedure: Cell-based models. Huh7.5.1 and human stellate LX2 cells were cultured in Dulbecco's Modified Eagle Medium (DMEM) supplemented with 10% heat-decomplemented fetal bovine serum FBS, gentamycin (0.05 mg/mL) and non-essential amino acids (complete DMEM) at 37° C. with 5% CO2. For proliferation arrest and differentiation ([…] cells), Huh7.5.1 cells were cultured in complete DMEM supplemented 1% DMSO [5]. All cell lines were certified mycoplasma-free. To analyze the PES induction […] cells were infected with HCV Jc1 (genotype 2a/2a) for a total of 10 days. Cells were then treated with Captopril (1 μM), Nizatidine (10 μM), Pioglitazone (1 μM), JQ1 (50 nM). For the FFA model, Huh7.5.1^dif cells were cocultured with 20% LX-2 cells. Following co-culture for 3 days in DMEM supplemented with 10% heat-decomplemented FBS, gentamycin and 1% DMSO at 37° C. and 5% CO2, cells were incubated with FFA (800 μM oleic acid and 400 μM palmitic acid) for 72 h.
(§1) Analysis of gene expression of the prognostic epigenetic signature (PES) using nCounter expression or RNASeq analyses. Profiling of the PES was performed using Nanostring nCounter assay or RNASeq as described. Induction or suppression of the PES in gene expression data was determined as previously reported using the Gene Set Enrichment Analysis (GSEA), implemented in GenePattern genomic analysis toolkits. […]

[2] = system: 1693-gene signature and 25-gene signature (PES); assay: Transcriptomic profiling (RNA-Seq, GSEA) of livers of DEN/CDAHFD mice; format: in vivo, mouse
Procedure: ChIPmentation based ChIP-Seq and RNA next-generation sequencing (NGS). ChIPmentation-based ChIP-Seq was performed as described. RNA-Seq was performed as described. Mouse RNA-Seq data was processed as described for patient's data but was instead mapped to the mouse genome mm10 and annotated using the Gencode vM15 gene annotation. Processing of ChIPmentation data was described, and data was partially derived from BioProject PRJNA506130. Since late stage fibrosis patients have the highest HCC risk, patient tissues from late stage fibrosis (F3 and F4) samples were included for all H3K27ac analyses as well as from the external CHC RNA-Seq dataset (GSE84346)[12]. Transcriptomic data for NASH patients was derived from external expression dataset (GSE115193)[13] and data for DAA-cured patients was published in BioProject PRJNA506130[6]. The RNA-Seq data from HCV-infected liver cells was published in (GSE126831)[14].
as §1, with “toolkits. False discovery rate (FDR)<0.05 was regarded as statistically significant.” for “toolkits.”

[3] = system: DEN and CDAHFD-induced hepatocarcinogenesis; assay: DEN/CDAHFD NASH-fibrosis-HCC mouse model: liver disease, fibrosis and tumor burden; format: in vivo; conditions: DEN/CDAHFD mice
Source text: FIG. 8. Reversal of the PES poor prognosis status in vivo by a bromodomain-4 inhibitor translates into improvement of liver disease and cancer prevention (A) Schematic representation of in vivo the proof-of-concept study using a mouse model of DEN and choline-deficient, L-amino acid-defined, high-fat diet (CDAHFD)-induced hepatocarcinogenesis. (B) Transcriptomic changes of genes with significant H3K27ac modifications from livers from patients with NASH and chronic hepatitis C (CHC) as explained in FIG. 1D (overlapping genes) and corresponding changes in vehicle or JQ1-treated DEN/CDAHFD mice. (C) Venn diagram showing epigenetically and transcriptionally altered genes in CHC/NASH patients and in DEN/CDAHFD mice, that were corrected by JQ1 treatment. Genes that harbor epigenetic and transcriptomic changes were identified in CHC/NASH patients and in DEN/CDAHFD mice. Among the changed genes, the inventors analyzed whether JQ1 could revert back their H3K27ac levels and their transcript expression levels. (H) GSEA enrichments of 1693-gene signature and 25-gene signature (PES) gene sets in data shown for JQ1-treated DEN/CDAHFD mice. (D) Improvement of liver disease and prevention of HCC. The global status corresponds to the difference between low risk- and high risk-gene expression. GSEA enrichments of 1693-gene signature and 25-gene signature (PES) gene sets in data shown for JQ1-treatment on panel B. The global status corresponds to the difference between low risk- and high risk-gene expression. […] Results are expressed as means±SEM. (F) Representative macroscopic photographs of livers (×1.5 magnified), H&E and Sirius red staining of liver sections from vehicle and JQ1-treated mice. Tumor nodules are indicated by an arrowhead and are delimited by dashed lines. […] Fibrosis stage was evaluated through quantitative digital analysis of whole-scanned liver sections (collagen proportional area (CPA)) in JQ1-treated (n=3) compared with JQ1-untreated (n=3) mice. Results are expressed as means±SD.
Example 5: Reversal of the PES poor prognosis status in vivo translates into improvement of liver disease, inhibition of fibrosis progession and cancer prevention. To investigate (1) whether the PES is modeled in animal models for liver disease and (2) reversal of the […] poor prognosis status by a compound correlates with improvement of liver disease and cancer prevention, the inventors studied the 1693 gene signature and the 25 gene subset expression in a NASH-fibrosis-HCC mouse model, in which the mice are treated with the BRD inhibitor JQ1 following development of liver disease. In this model a Choline-deficient high-fat-diet (CDHFD) diet combined with DEN, a chemical carcinogen, induces liver fibrosis progressing to HCC. […] Mice were treated with JQ1 after 6 weeks of CDAHFD feeding when liver disease developed (FIG. 8A).

SMILES | Reversal of PES (25-gene signature) from HCC high risk, poor prognosis status to HCC low risk, good prognosis status [1] | GSEA enrichment of 1693-gene signature and 25-gene signature (PES) gene sets after treatment [2] | Expression of H3K27ac-altered genes in patients reverted by treatment ([2]; 1007 out of 1693 genes) | Tumor burden in vivo [3] | Liver fibrosis measured by collagen proportionate area (CPA) ([3]; treated n=3 vs untreated n=3) | Body weight ([3]; treated n=8 vs untreated n=8) | Liver weight ([3]; treated n=8 vs untreated n=8) | Number of tumor nodules ([3]; treated n=8 vs untreated n=8)
CNC(=C[N+](=O)[O-])NCCSCc1csc(CN(C)C)n1 [Nizatidine] | Reversal of the poor prognosis/HCC high risk genes to good prognosis/HCC low risk expression |  |  |  |  |  |  | 
Cc1sc2c(c1C)C(c1ccc(Cl)cc1)=N[C@@H](CC(=O)OC(C)(C)C)c1nnc(C)n1-2 [JQ1] | Reversal of the poor prognosis/HCC high risk genes to good prognosis/HCC low risk expression; also recorded: reverted the 25-gene signature (PES) | correspondingly (i.e., reversely) enriched | 59% | significantly reduces tumor burden | efficiently reduces liver fibrosis; also recorded: significantly (p<0.05) reduced | stable; also recorded: without altering | significantly reduced | reduced; also recorded: overall decrease in their number
